# Data reported in patent US4927808A, “γ-L-glutamyl-L-cysteine ethyl ester and pharmaceutical compositions containing the same as an effective ingredient” (Teijin Limited, priority 1986, dated 1990).
# Where two headings read alike, the source gives them in different places.
# Key:
# ICR male mice [1] = assay: Recovery of tissue glutathione levels in mice pretreated with L-buthionine sulfoximine; assay type: in vivo; conditions: 2.5 mmol/kg s.c. 4 times, day after L-buthionine sulfoximine 4 mmol/kg x4
# Description: ICR male mice (9-day old) were given L-buthionine sulfoximine in dosage of 4 mmol/kg four times at an interval of 2.5 hours to decrease their tissue glutathione levels beforehand. The next day, the mice were given subcutaneously 2.5 mmol/kg of the present compound or saline 4 times at an interval of 2.5 hours. Glutathione monoethyl ester (GSHOET) was also given likewise in dosage of 2.5 mmol/kg as a control. The contents of glutathione in the livers and kidneys were measured according to the methods described in Example 6.
# ICR male mice [2] = assay: Detoxification of renal toxicity induced by cisplatin (BUN); assay type: in vivo; conditions: cisplatin 20 mg/kg i.p. + compound 2.5 mmol/kg i.p. 4 times a day for 5 days; one week after cisplatin
# Excerpt: The control groups were given saline instead of the present compound.
# [3] = system: experimentally developed cataract induced by L-buthionine sulfoximine; assay: Protective effect on experimental cataract induced by L-buthionine sulfoximine; assay type: in vivo, mice; conditions: 16th day after birth
# Excerpt: The cataract development rate in the table means the ratio of the experimental animals developing cataract to all the animals examined (11 to 12 mice per group) and the cataractous eye rate means the ratio of cataractous eyes to the whole number of eyes examined.
# ICR male mice [4] = assay: Mitigation of decrease of tissue glutathione levels, compound and L-buthionine sulfoximine given alternately to mice; assay type: in vivo; conditions: 2.5 mmol/kg s.c. alternately with L-buthionine sulfoximine 4 mmol/kg; versus saline
# Description: The compound of this invention was administered in the same way as Example 6, and L-buthionine sulfoximine (BSO) was administered likewise in dosage of 4 mmol/kg one hour after every administration of said compound. The contents of glutathione in the livers and kedneys were measured according to the methods described in Example 6 every 2.5 hours after the initial administration of the present compound. As controls, saline was administered in place of the present compound to take the similar measurements. FIGS. 2A and 2B shown the results.
# ICR male mice [5] = assay: Action to increase tissue glutathione levels in mice; assay type: in vivo; conditions: 9-day old mice
# Description: ICR male mice (9-day old) were subcutaneously given 2.5 mmol/kg of the compound of this invention (r-Glu-Cys OET) or control compounds (glutathione (GSH), γ-L-glutamyl-L-cysteine (r-Glu-Cys)) four times at 2.5-hour intervals. The mice were dissected and their livers and kidneys were removed before the administration and every 2.5 hour after the administration to have their glutathione (GSH) level determined. […]
# liver cells [6] = assay: Recovery of glutathione levels of liver cells after carbon tetrachloride treatment; assay type: cell-based, mice; conditions: 100 = before treatment
# Description: After carbon tetrachloride was added to the cultured liver cells at a concentration of 0.5 μl/ml, culture was continued for 1 hour. […] One hour later, the change of the cellular glutathione level was measured.
# mouse newborns = conditions: for Effect on increment of animals' body weight suppressed by the toxicity of BSO: mouse, in vivo; for Surviving rate: after the ending of administration
# Description: Experimental cataract was prepared according to the method of Calvin et al., Science, vol. 233, pp 553-555 (1986). More particularly, L-buthioninesulfoximine was administered subcutaneously to the ICR male mice at a dose of 4 mmol/kg for 3 successive days from the 9th day to the 11th day after birth every 2.5 hours 4 times a day to cause cataract. The rate of cataractgenesis was determined on the 16th day after birth. The test compounds were also given subcutaneously for 3 days from the 9th day to the 11th day after birth 4 times a day 1 hour before the administration of L-buthionine sulfoximine and thereafter the test compounds studied only were subcutaneously given 4 times a day at an interval of 2.5 hours on the consecutive 12th and 13th days after birth and the protective effect of the test compound on cataract formation was examined on the 16th day after birth. As the control compounds, glutathione, glutathione monoethyl ester, and γ-L-glutamyl-L-cysteine were also examined.
# Acute toxicity of the present compound was examined where it is administered according to the schedule of Example 9 and compared with there of controls, glutathione, glutathione monoethyl ester, and γ-L-glutamyl-L-cysteine.
# liver cells [7] = assay: Action to increase the glutathione levels in the liver cells (primary cultured hepatocytes); assay type: cell-based, mice; conditions: 1 mM, 100 = before addition
# Description: Hepatocyte (sample) was prepared according to the method of Nakamura et al. published in the Protein, Nucleic Acid, and Enzyme, vol. 24, pp 55-76 (1981), partly adopting the method of Wang et al. reported in the In Vitro, vol. 21, pp 526-530 (1985). The liver of mice was purfused with 0.05% collagenase, and cells were collected by centrifugation, and were further centrifuged with percoll to collect the parenchymal hepatocytes. The obtained hepatocytes were dispersed in the Williams' medium E containing 10% bovine fetal serum, dexamethasone (10^-6 M), insulin (1 μg/ml), and antibiotic, and were inoculated into the culture plate at a density of 1×10^5 cells/0.2 ml/cm^2. After unattached cells were removed once 1.5 hours later, the cultivation was continued at 37° C. in an atomosphere of 5% CO2 -95% air. The compound of this invention was added to the culture system to a concentration of 1 mM to measure the time lapsed changes of the cellular glutathione level according to the method reported by Owens and Belcher, Biochem. J., vol. 94, pp 705-711 (1965) and Tietze, Anal. Biochem., vol. 27, pp 502-522 (1969). The similar measurements were also made without the addition of the compound for comparison.
# liver cells [8] = assay: Prevention of necrosis of liver cells by carbon tetrachloride (GPT activity, Trypan Blue staining); assay type: cell-based, mice; conditions: 1 mM for 2 hours after D,L-buthionine sulfoximine removal, then carbon tetrachloride 0.5 μl/ml for 1 hour; for Survival rate: Trypan Blue
# Description: (§1) D, L-buthionine sulfoximine was added to the cultured liver cells to a density of 0.5 mM and cultivation was carried on for 16 hours. […] The changes of cellular glutathione levels were measured at that time. Thereafter the compounds studied were removed from the respective cultures whose culture media were then replaced with new ones containing carbon tetrachloride at a density of 0.5 μl/ml. After 1-hour cultivation, the action to prevent the necrosis of liver cells was examined by measuring the GPT activity of the respective culture supernatants and Trypan Blue staining test.
# (§2) In Table 3, the changes of cellular glutathione levels are expressed by relative values based on the untreated value set at 100 and the action to prevent the necrosis of liver cells is indicated by the GPT activity of the culture supernatant and survival rate.
# liver cells [9] = assay: Recovery of cellular glutathione levels after decrease by D,L-buthionine sulfoximine and removal of the inhibitor; assay type: cell-based, mice; conditions: untreated = 100
# Description: as §1, §2
# liver cells [10] = assay: Mitigation of decrease in glutathione levels in liver cells on coexistence with D,L-buthionine sulfoximine; assay type: cell-based, mice; conditions: 13 hours later, 100 = before addition
# Description: The cultured liver cells were cultured for 13 hours after the addition of D,L-buthionine sulfoximine to the concentration of 0.3 mM and the present compound to the concentration of 1 mM and then the levels of cellular glutathione were measured. The similar measurements were made on the controls in which nothing was added and in which D,L-buthionine sulfoximine only was added.
# [11] = cited from earlier work
# [12] = L-buthionine sulfoximine + compound 1.25 mmol/kg s.c.
# [13] = L-buthionine sulfoximine + compound 2.50 mmol/kg s.c.
# [14] = 2.5 mmol/kg subcutaneously four times at 2.5-hour intervals
# [15] = 1 mM added for 2 hours after removal of D,L-buthionine sulfoximine (0.5 mM, 16 hours)
# [16] = L-buthionine sulfoximine + compound 1.25 mmol/kg
# [17] = L-buthionine sulfoximine + compound 2.5 mmol/kg
# [18] = L-buthionine sulfoximine 4 mmol/kg alone
compound,measurement,setting,value
CCOC(=O)[C@H](CS)NC(=O)CC[C@H](N)C(=O)O [γ-L-glutamyl-L-cysteine ethyl ester],"Recovery of tissue glutathione level, kidney (FIG. 3B)",ICR male mice [1],far more excellent effect in making the tissular glutathion level recover to the normal level as compared with glutathione monoethyl ester
same,"Recovery of tissue glutathione level, liver (FIG. 3A)",ICR male mice [1],same effectiveness as glutathione monoethyl ester
same,BUN,ICR male mice [2],35.7 mg/dL
same,Cataract development rate,[3]; [12],50.0%
same,Cataractous eye rate,[3]; [12],41.7%
same,Cataract development rate,[3]; [13],0%
same,Cataractous eye rate,[3]; [13],0%
same,"Tissue glutathione level, kidney (FIG. 2B)",ICR male mice [4],mitigate the decrease of tissue glutathione levels
same,"Tissue glutathione level, liver (FIG. 2A)",ICR male mice [4],mitigate the decrease of tissue glutathione levels
same,"Tissue glutathione level, kidney (FIG. 1B)",ICR male mice [5]; [14],far more excellent effect than glutathione and γ-L-glutamyl-L-cysteine in increasing the tissue glutathione levels
same,"Tissue glutathione level, liver (FIG. 1A)",ICR male mice [5]; [14],far more excellent effect than glutathione and γ-L-glutamyl-L-cysteine in increasing the tissue glutathione levels
same,"SH levels in eyeballs, DTNB method (FIG. 1C)",ICR male mice [5]; 5 mmol/kg,improve the SH levels remarkably
same,Cellular glutathione level (relative value),"liver cells [6]; 1 mM added after removal of carbon tetrachloride, one hour later",67
same,Effect on increment of animals' body weight suppressed by the toxicity of BSO,mouse newborns,showed an effect to mitegate suppressed increment of animals' body weight
same,Cellular glutathione level (relative value),liver cells [7]; 0.5 hours,140
same,Cellular glutathione level (relative value),liver cells [7]; 1 hour,170
same,Cellular glutathione level (relative value),liver cells [7]; 2 hours,200
same,GPT activity of culture supernatant,liver cells [8],3 until/ml
same,Survival rate,liver cells [8],100%
same,Cellular glutathion level (relative value),liver cells [9]; [15],50
same,Cellular glutathione level (relative value),"liver cells [10]; coexistence of D,L-buthionine sulfoximine 0.3 mM and compound 1 mM",30
N[C@@H](CCC(=O)N[C@@H](CS)C(=O)O)C(=O)O [γ-L-glutamyl-L-cysteine],Cataract development rate,[3]; [12],66.7%
same,Cataractous eye rate,[3]; [12],77.8%
same,Surviving rate,mouse newborns; [16],75%
same,Surviving rate,mouse newborns; [17],0%
same,Effect on increment of animals' body weight suppressed by the toxicity of BSO,mouse newborns,such effect was not seen
same,GPT activity of culture supernatant,liver cells [8],60 until/ml
same,Survival rate,liver cells [8],10%
same,Cellular glutathion level (relative value),liver cells [9]; [15],10
"CCCCS(=N)(=O)CCC(N)C(=O)O [D,L-buthionine sulfoximine, D,L-buthionine-sulfoximine, reference compound]",Cellular glutathion level (relative value),"liver cells [9]; D,L-buthionine sulfoximine 0.5 mM, 16 hours",1
same,Cellular glutathione level (relative value),"liver cells [10]; D,L-buthionine sulfoximine 0.3 mM alone",17
"CCCCS(=N)(=O)CCC(N)C(=O)O [L-buthionine sulfoximine, reference compound]",Cataract development rate,[3]; [18],91.7%
same,Cataractous eye rate,[3]; [18],91.7%
same,Surviving rate,mouse newborns; [18],100%
CCOC(=O)[C@H](CSSC[C@H](NC(=O)CC[C@H](N)C(=O)O)C(=O)OCC)NC(=O)CC[C@H](N)C(=O)O [γ-L-glutamyl-L-cystein ethyl ester of oxidized type dimer],Cataract development rate,[3]; [13],30.0%
same,Cataractous eye rate,[3]; [13],35.0%
same,Surviving rate,mouse newborns; [17],100%
"N[C@@H](CCC(=O)N[C@@H](CS)C(=O)NCC(=O)O)C(=O)O [Glutathione, glutathione]",Cataract development rate,[3]; [12],75.0%
same,Cataractous eye rate,[3]; [12],70.8%
same,half life in blood,[11],several minutes
same,Surviving rate,mouse newborns; [16],100%
same,Surviving rate,mouse newborns; [17],50%
same,Effect on increment of animals' body weight suppressed by the toxicity of BSO,mouse newborns,such effect was not seen
same,GPT activity of culture supernatant,liver cells [8],60 until/ml
same,Survival rate,liver cells [8],10%
same,Cellular glutathion level (relative value),liver cells [9]; [15],10
"ClC(Cl)(Cl)Cl [carbon tetrachlodie, carbon tetrachloride, reference compound]",Cellular glutathione level (relative value),"liver cells [6]; after carbon tetrachloride 0.5 μl/ml, 1 hour",33
